Measured values published in patent publication US10117853B2, “Cyclic amine derivative and pharmaceutical use thereof” (Toray Industries, Inc., priority 2015, dated 2018).
Structures can show the parent of a compound that is named as a salt.

How the values were obtained:
[1] = system: mouse partial sciatic nerve ligation model; experiment: Mouse partial sciatic nerve ligation model (Seltzer model), von Frey test; assay type: in vivo, Crl: CD1 (ICR) mice; details: oral administration seven days after ligation; 0.01 to 10 mg/kg depending on compound, pregabalin 10 mg/kg; 1, 2, 3 hours after administration; versus partial sciatic nerve ligation+distilled water group
Description: Using a partial sciatic nerve ligation model (Seltzer model) in mice by which neuropathic pain can be evaluated, the analgesic action of a cyclic amine derivative (I) or a pharmacologically acceptable salt thereof was investigated.
The mouse partial sciatic nerve ligation model was prepared in accordance with the method of Seltzer et al. (Malmberg et al., Pain, vol. 76, p. 215-222, 1998).
Crl: CD1 (ICR) mice (5 weeks old, male; from CHARLES RIVER LABORATORIES JAPAN, INC.) was anesthetized with sodium pentobarbital (70 mg/kg, intraperitoneal administration). The sciatic nerve at the femoral region of the right hind paw of each mouse was exposed and triply ligated tightly with silk suture of 8-0 (from NATSUME […]., LTD.) under a stereomicroscope so that only half thickness of the nerve was trapped in the ligature. A group of mice thus treated was designated as a partial sciatic nerve ligation group. A group of mice whose sciatic nerve was just exposed and not ligated was designated as a sham surgery group.
Evaluation of neuropathic pain (hereinafter referred to as von Frey test) was performed as follows. Mice were conditioned for at least one hour in an acrylic cage for measurement (from NATSUME […]. LTD.) placed on a wire net. Thereafter, using a filament (from North Coast Medical or neuroscience) which exerted a pressure of 0.16 g, the mice were subjected to mechanical tactile stimulus by applying the filament to the plantar surface of the right hind paw 3 times, each for 3 seconds, with an interval of 3 seconds.
Seven days after the sciatic nerve ligation surgery, the compound of Example 4, 6, 8, 10, 12, 14, 16, 18 or 20 (1 to 10 mg/kg for each of the compounds of Examples 4, 6 and 8, 0.1 to 10 mg/kg for each of the compounds of Examples 16 and 18, 0.01 to 10 mg/kg for each of the compounds of Examples 10, 12 and 14; and 0.1 to 1 mg/kg for the compound of Example 20) or pregabalin as a positive control (10 mg/kg; KEMPROTEC) was dissolved in distilled water and orally administered to mice of the partial sciatic nerve ligation group. The groups of the partial sciatic nerve ligation mice to which the compound of Example 4, 6, 8, 10, 12, 14, 16, 18 or 20 was administered were designated as a “partial sciatic nerve ligation+the compound of Example 4” group; a “partial sciatic nerve ligation+the compound of Example 6” group; a “partial sciatic nerve ligation+the compound of Example 8” group; a “partial sciatic nerve ligation+the compound of Example 10” group; a “partial sciatic nerve ligation+the compound of Example 12” group; a “partial sciatic nerve ligation+the compound of Example 14” group; a “partial sciatic nerve ligation+the compound of Example 16” group; a “partial sciatic nerve ligation+the compound of Example 18” group; and a “partial sciatic nerve ligation+the compound of Example 20” group, respectively. The partial sciatic nerve ligation mouse group to which pregabalin was administered, was designated as a “partial sciatic nerve ligation+pregabalin” group. Also, the partial sciatic nerve ligation mouse group to which distilled water was orally administered, was designated as a “partial sciatic nerve ligation+distilled water” group. The sham surgery mouse group to which distilled water was orally administered was designated as a “sham surgery+distilled water” group.
The von Frey test was carried out before oral administration of a test compound (pre-value), one hour, two hours and three hours after the oral administration of a test compound.
In the figures, the vertical axis represents the total score (mean value±standard error; n=5 to 6 in FIGS. 1 to 9) in the von Frey test. The higher numerical value indicates stronger pain. The horizontal axis represents time (hr) after administration of a test compound. […]

[2] = system: fibromyalgia syndrome model rats; experiment: Fibromyalgia syndrome model in rats (acidic saline), allodynia by von Frey filament; assay type: in vivo, Crl: CD(SD) rat; details: oral administration; Example 6 10 to 100 mg/kg, Example 18 1 to 100 mg/kg, pregabalin 10 mg/kg; 1 and 3 hours after administration; versus acidic saline+distilled water group
Description: Using a fibromyalgia syndrome model in rats by which fibromyalgia syndrome can be evaluated, the analgesic action of a cyclic amine derivative (I) or a pharmacologically acceptable salt thereof was investigated.
To prepare a fibromyalgia syndrome model rat (Sluka et al., Journal of Pharmacology and Experimental Therapeutics, vol. 302, p. 1146-1150, 2002; Nagakura et al., Pain, vol. 146, p. 26-33, 2009; Sluka et al., Pain, vol. 146, p. 3-4, 2009), which is generally employed widely in basic research for fibromyalgia syndrome, acidic saline (100 μL) adjusted to pH4.0 was intramuscularly injected to the gastrocnemius muscle of the right hind paw of Crl: CD(SD) rat (6 to 7 weeks old, male; from CHARLES RIVER LABORATORIES JAPAN, INC.) under continuous inhalation anesthesia with isoflurane, twice (once in each day of Day 1 and Day 6, wherein Day 1 was the date on which the acidic saline was initially administrated). The rats thus prepared were raised in a breeding room controlled at an indoor temperature of 21 to 25° C. and an indoor humidity of 40 to 70% under the conditions of voluntary intake of food and water. In the same manner, rats to which physiological saline in place of acidic saline was intramuscularly injected were raised. The rats thus raised and not afflicted with fibromyalgia syndrome (“physiological saline+distilled water” group in FIG. 10 or 11) were also used in the experiment.
Seven days after the initial administration of acidic saline, allodynia in each rat was measured. […]
The compounds of Examples 6 and 18 (10 to 100 mg/kg for the compound of Example 6; 1 to 100 mg/kg for the compound of Example 18) were separately dissolved in distilled water and orally administered to fibromyalgia model rats (“acidic saline+the compound of Example 6” in FIG. 10 and “acidic saline+the compound of Example 18” in FIG. 11). […] In one hour and three hours after the oral administration, allodynia in individual rats was measured to evaluate an analgesic action. […]

Structure (SMILES) | analgesic action, total score in the von Frey test [1] | allodynia, 50% response threshold (mean value of the right hind paw and the left hind paw) [2]
CCCCCCCCOC(=O)CCn1ccnc1CCC(=O)N1CC[C@H](N(C)C)C1 [Example 8, n-octyl (S)-3-(2-(3-(3-(dimethylamino)pyrrolidin-1-yl)-3-oxopropyl)-1H-imidazol-1-yl)propanoate hydrochloride] | statistically significant analgesic action | –
CCCCCCCOC(=O)Cn1ccnc1CCC(=O)N1CCC(N2CCOCC2)CC1 [Example 18, n-heptyl 2-(2-(3-(4-morpholinopiperidin-1-yl)-3-oxopropyl)-1H-imidazol-1-yl)acetate hydrochloride] | statistically significant analgesic action | statistically significantly improved
CCCCCCOC(=O)CCn1ccnc1CCC(=O)N1CC[C@H](N(C)C)C1 [Example 4, n-hexyl (S)-3-(2-(3-(3-(dimethylamino)pyrrolidin-1-yl)-3-oxopropyl)-1H-imidazol-1-yl)propanoate hydrochloride] | statistically significant analgesic action | –
CCCOC(=O)Cn1ccnc1CCC(=O)N1CCC(N2CCOCC2)CC1 [Example 10, n-propyl 2-(2-(3-(4-morpholinopiperidin-1-yl)-3-oxopropyl)-1H-imidazol-1-yl)acetate hydrochloride] | statistically significant analgesic action | –
CCCCCCOC(=O)Cn1ccnc1CCC(=O)N1CCC(N2CCOCC2)CC1 [Example 16, n-hexyl 2-(2-(3-(4-morpholinopiperidin-1-yl)-3-oxopropyl)-1H-imidazol-1-yl)acetate hydrochloride] | statistically significant analgesic action | –
CCCCCCCOC(=O)CCn1ccnc1CCC(=O)N1CC[C@H](N(C)C)C1 [Example 6, n-heptyl (S)-3-(2-(3-(3-(dimethylamino)pyrrolidin-1-yl)-3-oxopropyl)-1H-imidazol-1-yl)propanote hydrochloride] | statistically significant analgesic action | statistically significantly improved
CCCCCOC(=O)Cn1ccnc1CCC(=O)N1CCC(N2CCOCC2)CC1 [Example 14, n-pentyl 2-(2-(3-(4-morpholinopiperidin-1-yl)-3-oxopropyl)-1H-imidazol-1-yl)acetate hydrochloride] | statistically significant analgesic action | –
CC(C)C[C@H](CN)CC(=O)O [pregabalin, reference compound] | statistically significant analgesic action | statistically significantly improved
CCCCOC(=O)Cn1ccnc1CCC(=O)N1CCC(N2CCOCC2)CC1 [Example 12, n-butyl 2-(2-(3-(4-morpholinopiperidin-1-yl)-3-oxopropyl)-1H-imidazol-1-yl)acetate hydrochloride] | statistically significant analgesic action | –
CCCCCCCCOC(=O)Cn1ccnc1CCC(=O)N1CCC(N2CCOCC2)CC1 [Example 20, n-octyl 2-(2-(3-(4-morpholinopiperidin-1-yl)-3-oxopropyl)-1H-imidazol-1-yl)acetate hydrochloride] | statistically significant analgesic action | –
